This is an account of results in patent US8597646B2, “Methods and compositons featuring TGF-beta antagonists for the treatment of marfan syndrome and associated disorders” (The Johns Hopkins University, priority 2005, dated 2013).

The structures appear in SMILES notation. “Also recorded” adds a separate entry of the source.

Holding throughout (assay type): in vivo, mouse
In assay [1] the test system is Fbn1C1039G/+ mice. Put plainly: Muscle regeneration after cardiotoxin-induced injury in Fbn1C1039G/+ mice. The note with it: 4 and 18 days after injury, monopotassium salt. The method, then: All mouse protocols were approved by the Animal Care and Use Committee of Johns Hopkins University School of Medicine. Creation of the mouse line harboring the Fbn1 mutation C1039G has been previously described (Judge, D. P. et al. (2004) J Clin Invest 114, 172-81). All analyses were performed in male mice after back-crossing (>9 times) this mutation into the C57BL/6J background, allowing valid comparisons between litters. Mice were sacrificed with an inhalation overdose of halothane (Sigma-Aldrich) or by cervical dislocation. […] Subsequently, mice were analyzed at 4, 7, 18 and 28 days after injury. For regeneration experiments in mdx mice we injected 150 μl of cardiotoxin into the tibialis anterior muscle of wild-type and mdx mice, either treated or untreated with TGFβ neutralizing antibody (n=6 each group) at 9 months of age and analyzed skeletal muscle at 4 days and 18 days after injection.
Mice were continued on oral therapy for 6 months and sacrificed. […] After 6 months of treatment, forelimb and hindlimb grip strength was assessed using an automated grip strength meter (Columbus Instruments, Columbus, Ohio). […] Total peak force (in Newtons) was determined by an electronic strain gauge as previously described and corrected for body weight (Wagner, K. R., et al. (2002) Ann Neurol 52, 832-6). […]

In assay [2] the test system is C1039G/+ mice. Briefly: Aortic wall histology (elastic matrix architecture) in treated C1039G/+ mice. The note with it: 4 months of treatment.
The subject of assay [3] is mdx mice. Briefly: Muscle regeneration after cardiotoxin injury in 9-month old mdx mice. The method, then: All mouse protocols were approved by the Animal Care and Use Committee of Johns Hopkins University School of Medicine. Creation of the mouse line harboring the Fbn1 mutation C1039G has been previously described (Judge, D. P. et al. (2004) J Clin Invest 114, 172-81). All analyses were performed in male mice after back-crossing (>9 times) this mutation into the C57BL/6J background, allowing valid comparisons between litters. Mice were sacrificed with an inhalation overdose of halothane (Sigma-Aldrich) or by cervical dislocation. For muscle regeneration experiments in Fbn1^C1039G/+ mice, 100 μl cardiotoxin (10 μM Naja nigricollis; Calbiochem, La Jolla, Calif.) (Goetsch, S. C. et al. (2003) Physiol Genomics 14, 261-71; Cohn, R. D. et al. (2002) Cell 110, 639-48) was injected into the tibialis anterior muscle of wild-type and Fbn1^C1039G/+ mice either treated or untreated with TGFβ neutralizing antibody (n=6, each group) at 4 months of age. Subsequently, mice were analyzed at 4, 7, 18 and 28 days after injury. For regeneration experiments in mdx mice we injected 150 μl of cardiotoxin into the tibialis anterior muscle of wild-type and mdx mice, either treated or untreated with TGFβ neutralizing antibody (n=6 each group) at 9 months of age and analyzed skeletal muscle at 4 days and 18 days after injection.
Mice were continued on oral therapy for 6 months and sacrificed. […] Age-matched wild-type and mdx mice (placebo-treated) served as a control group. After 6 months of treatment, forelimb and hindlimb grip strength was assessed using an automated grip strength meter (Columbus Instruments, Columbus, Ohio). […] Total peak force (in Newtons) was determined by an electronic strain gauge as previously described and corrected for body weight (Wagner, K. R., et al. (2002) Ann Neurol 52, 832-6). […] The degree of fatigue was calculated by comparing the first two pulls to the last two pulls with the decrement between pulls 1+2 and pulls 4+5 providing a measure of fatigue. […]

Assay [4] deals with Fbn1mgR/mgR mice. Briefly: Forelimb grip strength and fatigue in Fbn1mgR/mgR mice. To be noted: 5 months of losartan, untreated 28±2.5, wild-type 3±0.8. The method, then: Mice were continued on oral therapy for 6 months and sacrificed. […] Age-matched wild-type and mdx mice (placebo-treated) served as a control group. After 6 months of treatment, forelimb and hindlimb grip strength was assessed using an automated grip strength meter (Columbus Instruments, Columbus, Ohio). The experiments for forelimb and hindlimb grip strength testing were conducted at different days allowing for a minimum recovery period of 10 days. Total peak force (in Newtons) was determined by an electronic strain gauge as previously described and corrected for body weight (Wagner, K. R., et al. (2002) Ann Neurol 52, 832-6). Five measurements within 2 minutes were taken from each animal. The three highest measurements for each animal were averaged to give the strength score. The degree of fatigue was calculated by comparing the first two pulls to the last two pulls with the decrement between pulls 1+2 and pulls 4+5 providing a measure of fatigue. Similarly, functional measurements were performed in 6 month old fibrillin-1 deficient mice (Fbn1^mgR) (Pereira, L. et al. (1997) Nat Genet. 17, 218-22) after 5 months of treatment.

Assay [5] has as its system Fbn1C1039G/+ mice. Put plainly: Prenatal treatment with losartan and propranolol, aorta of Fbn1C1039G/+ mice. The note with it: prenatal start. The text has this: Treatment of the mothers continued throughout lactation and was maintained in the pups after weaning. Mice were killed at 10 months of age. […] The average aortic wall thickness for untreated wild-type animals was smaller than that in placebo-treated Fbn1C1039G/+ mice (P<0.0001) but was indistinguishable from that in losartan-treated Fbn1C1039G/+ mice (P=0.24, FIG. 20E).

In assay [6] the test system is TGFβ signaling (pSmad2/3, periostin). Briefly: Immunofluorescence of TGFβ signaling markers (pSmad2/3, periostin, TSP1) in skeletal muscle of fibrillin-1 deficient mice. The method, then:
Immunofluorescent studies were performed as previously described (Cohn, R. D. et al. (2002) Cell 110, 639-48). […] The following antibodies were used in this study: goat polyclonal anti-pSmad 2/3, rabbit polyclonal anti c-met and rabbit polyclonal anti-myogenin (all from Santa Cruz Biotechnology Inc.); rabbit polyclonal anti-pSmad2 (#3104, Cell Signal) rat polyclonal anti-lamininyl, rabbit polyclonal anti-dystrophin, rabbit polyclonal antithrombospondin-1 and rabbit polyclonal anti-periostin (all from Abcam); rabbit polyclonal anti-fibrillin-1 (pAb 9543) (Judge, D. P. et al. (2004) J Clin Invest 114, 172-81); goat polyclonal anti-vimentin (Sigma) and, mouse monoclonal anti-beta-sarcoglycan mouse monoclonal anti-developmental myosin (Novocastra). Anti a-dystroglycan antibody IIH6 was generously supplied by Dr. Kevin Campbell, Iowa. Secondary Alexa fluor donkey anti-rabbit, anti-rat, anti mouse IgM and IgG1 and anti-goat conjugated antibodies (Molecular probes) were applied for 1 hour at room temperature. Nuclei were stained with DAPI for 5 minutes, and inverted coverslips were mounted onto glass slides using Cytoseal (Vector Laboratories).
Skeletal muscle from Fbn1^C1039G/+ mice was assessed for increased TGFβ signaling by immunohistochemical staining for phosphorylated Smad2/3 (pSmad2/3). […]

Where [7] appears, read: 10 months of treatment, monopotassium salt.

In the case of `CCCCc1nc(Cl)c(CO)n1Cc1ccc(-c2ccccc2-c2nnn[nH]2)cc1.[K]` [losartan, 2-butyl-4-chloro-1-[p-(o-1H-tetrazol-5-ylphenyl)benzyl]imidazole-5-methanol monopotassium salt], the “Muscle regeneration after cardiotoxin injury, in words” value in assay [1] (listed as Losartan) is listed as “rescued; also recorded: normal initiation of muscle regeneration”. For the same compound, the “Muscle regeneration after cardiotoxin injury, in words” value in assay [1] is given as “markedly improved”. The “Elastic matrix architecture / histologic parameters of the aorta” value in assay [2] is reported as “normalized”. Also, the “Muscle regeneration in mdx mice, in words” value in assay [3] (4 days after cardiotoxin, neonatal myosin staining) is “active regeneration comparable to that seen in wild-type mice”. For the same compound, in assay [3] (18 days after cardiotoxin, monopotassium salt), the “Fibrosis (vimentin) after injury, in words” value is “reduced fibrosis; also recorded: marked reduction in fibrosis”. In addition, the “Neonatal myosin positive fibers” value in assay [3] (four days after injury, untreated mdx 268±12, wild-type 689±19) is recorded as 513±14 neonatal myosin positive fibers per tibialis anterior muscle. In addition, the Fatigue in assay [4] is recorded as 9%±1.8. For the same compound, the Aortic dilatation entry in assay [5] (10 months) is listed as “indistinguishable from wild-type littermates”. In assay [5] (setting [7]), the “Aortic wall architecture score” value is “normalized; also recorded: improvement” and the “Average aortic wall thickness” value was “indistinguishable; also recorded: full normalization of wall thickness”. For the same compound, the “Nuclear pSmad2/3 and sarcolemmal periostin in uninjured skeletal muscle” value in assay [6] (Fbn1C1039G/+ mice, steady state) is given as “abrogation of TGFβ signaling”. Further, in assay [6] (losartan-treated fibrillin-1 deficient mice), the “Expression of thrombospondin-1 (TSP1) and periostin in skeletal muscle” value is recorded as “Decreased expression”.
